Laboratory results taken from US20220330549A1, “USE OF N-BENZYLBENZAMIDE-BASED COMPOUND AS HERBICIDE” (Northwest A&F University, priority 2020, published 2022).

Experiments:
Assay type in all cases: in vivo
Barnyard grass [1] = experiment: Herbicidal activity test for indoor pre-emergence soil treatment; set-up: key: level 1-9; higher = more weed remaining vs blank control; settings: 150 g a.i./ha, visual inspection 21 days after treatment
Description: (§1) The herbicidal activity test for indoor pre-emergence soil treatment was performed with some of the N-benzylbenzamide-based compounds of general formula I or II with reference to the method of NY/T 1155.3-2006. Neutral sandy loam soil having an organic content of ≤2% was added to fill ⅘ of the pot, and the soil was completely moistened by infiltrating irrigation from the bottom of the pot. The seeds of the test weed were evenly spread on the soil surface, and then covered by 0.5 cm to 2.0 cm of soil depending on the seed size. Representative compounds in the examples were used to prepare emulsifiable concentrates (10%), and spray treatments to the soil were performed 24 hours after the sowing with the test agents diluted with water, at a spraying dosage of 150 g(a.i.)/ha. Then, the results were investigated by visual inspection 21 days after the treatments. The herbicidal activity of the agent was evaluated on a scale of 1-9 levels according to the symptoms and severity of damage to the test weeds.
(§2) Level 2: equivalent to 0 to 2.5% of the weed in the blank control area;
(§3) Level 3: equivalent to 2.6 to 5% of the weed in the blank control area;
(§4) Level 4: equivalent to 5.1 to 10% of the weed in the blank control area;
(§5) Level 5: equivalent to 10.1 to 15% of the weed in the blank control area;
(§6) Level 6: equivalent to 15.1 to 25% of the weed in the blank control area;
(§7) Level 7: equivalent to 25.1 to 35% of the weed in the blank control area;
(§8) Level 8: equivalent to 35.1 to 67.5% of the weed in the blank control area; and
(§9) Level 9: equivalent to 67.6 to 100% of the weed in the blank control area.

Piemarker [2] = experiment: as above; set-up: key: level 1-9; higher = more weed remaining vs blank control; settings: 150 g a.i./ha, visual inspection 21 days after treatment
Description: as §1, §2, §3, §4, §5, §6, §7, §8, §9

green bristlegrass [3] = experiment: as above; set-up: key: level 1-9; higher = more weed remaining vs blank control; settings: 150 g a.i./ha, visual inspection 21 days after treatment
Description: as §1, §2, §3, §4, §5, §6, §7, §8, §9

Amaranthus retroflexus [4] = experiment: as above; set-up: key: 1-9 levels; higher = more weed remaining vs blank control; settings: 150 g a.i./ha, visual inspection 21 days after treatment
Description: as §1, §2, §3, §4, §5, §6, §7, §8, §9

Digitaria sanguinalis [5] = experiment: as above; set-up: key: 1-9 levels; higher = more weed remaining vs blank control; settings: 150 g a.i./ha, visual inspection 21 days after treatment
Description: as §1, §2, §3, §4, §5, §6, §7, §8, §9

Humulus scandens [6] = experiment: as above; settings: 150 g a.i./ha, visual inspection 21 days after treatment
Description: as §1, §2, §3, §4, §5, §6, §7, §8, §9

Amaranthus retroflexus [7] = experiment: Herbicidal activity test for indoor post-emergence spraying on stems and leaves; set-up: key: grade level by weed remaining vs blank control, e.g. 5 = 10.1-15%; settings: 150 g a.i./ha, visual inspection 21 days after treatment
Description: (§10) The post-emergence herbicidal activity test was performed with some of the N-benzylbenzamide-based compounds of general formula I or II with reference to the method of NY/T 1155.4-2006. […] After the sowing, the weed was moved to a greenhouse for regular cultivation. […] Then, the results were investigated by visual inspection 21 days after the treatments. […] Level 5: equivalent to 10.1 to 15% of the weed in the blank control area; Level 6: equivalent to 15.1 to 25% of the weed in the blank control area; Level 7: equivalent to 25.1 to 35% of the weed in the blank control area; Level 8: equivalent to 35.1 to 67.5% of the weed in the blank control area; and […]

Barnyard grass [8] = experiment: as above; set-up: key: grade level by weed remaining vs blank control, e.g. 5 = 10.1-15%; settings: 150 g a.i./ha, visual inspection 21 days after treatment
Description: as §10

Digitaria sanguinalis [9] = experiment: as above; set-up: key: grade level by weed remaining vs blank control, e.g. 5 = 10.1-15%; settings: 150 g a.i./ha, visual inspection 21 days after treatment
Description: as §10

Humulus scandens [10] = experiment: as above; set-up: key: grade level by weed remaining vs blank control, e.g. 5 = 10.1-15%; settings: 150 g a.i./ha, visual inspection 21 days after treatment
Description: as §10

Piemarker [11] = experiment: as above; set-up: key: grade level by weed remaining vs blank control, e.g. 5 = 10.1-15%; settings: 150 g a.i./ha, visual inspection 21 days after treatment
Description: as §10

green bristlegrass [12] = experiment: as above; set-up: key: grade level by weed remaining vs blank control, e.g. 5 = 10.1-15%; settings: 150 g a.i./ha, visual inspection 21 days after treatment
Description: as §10

Broadleaf weed = experiment: Post-emergence herbicidal activity test in a paddy field; set-up: key: level scale; higher level = more weed left vs blank control; settings: 150 g a.i./ha (penoxsulam control 250 g(a.i.)/h)
Description: (§11) The post-emergence herbicidal activity test was performed in a paddy field with some of the N-benzylbenzamide-based compounds of general formula I or II with reference to the method of GB/T 17980.40-2000. […] Spray treatments were performed in the stage where 4 leaves to 5 leaves were grown for the rice seedlings which was about 1 month after the sowing. Representative compounds in the examples were used to prepare emulsifiable concentrates (10%), and spray treatments were performed with the concentrates in water at a dosage of 150 g(a.i.)/ha, and repeated 4 times for each treatment, and the area was 50 m^2. 25 g/L of penoxsulam suspension was used as a control agent and applied at a dosage of 250 g(a.i.)/h. The results were investigated by a value estimating survey method 15 days and 30 days after the treatments. The relative weed population quantities were estimated by comparing each agent treated area with an adjacent blank control area, and the results of which were investigated with the following grading standard method using the overall coverage of the weed population as an indicator.
as §2, §3, §4, §5, §6, §7, §8, §9

Cyperaceae = experiment: as above; set-up: key: level scale; higher level = more weed left vs blank control; settings: 150 g a.i./ha (penoxsulam control 250 g(a.i.)/h)
Description: as §11, §2, §3, §4, §5, §6, §7, §8, §9

Gramineae = experiment: as above; set-up: key: level scale; higher level = more weed left vs blank control; settings: 150 g a.i./ha (penoxsulam control 250 g(a.i.)/h)
Description: as §11, §2, §3, §4, §5, §6, §7, §8, §9

Acalypha australis = experiment: Field test for weed control in a corn field; settings: 150 g a.i./ha, after treatment
Description: (§12) The weed control efficacy field test was performed in a corn field with some of the N-benzylbenzamide-based compounds of general formula I or II with reference to the method of GB/T 17980.42-2000. […] Spray treatments were performed in the stage where 2 leaves to 5 leaves were grown for the corns after the sowing. Representative compounds in the examples were used to prepare emulsifiable concentrates (10%), and spray treatments were performed with the concentrates in water at a dosage of 150 g(a.i.)/ha, and repeated 4 times for each treatment, and the area was 20 m^2. Oil dispersion with 25% of mesotrione was used as a control agent and applied at a dosage of 150 g(a.i.)/h. […] The herbicidal activities of the agents were evaluated on a scale of 1-9 levels according to the symptoms and severity of damage to the test weeds.
as §2, §3, §4, §5, §6, §7, §8, §9

Amaranthus retroflexus [13] = experiment: Field test for weed control in a corn field; settings: 150 g a.i./ha, 30 days after treatment
Description: as §12, §2, §3, §4, §5, §6, §7, §8, §9

Barnyard grass [14] = experiment: Field test for weed control in a corn field; settings: 150 g a.i./ha, 30 days after treatment
Description: as §12, §2, §3, §4, §5, §6, §7, §8, §9

Chenopodium album = experiment: Field test for weed control in a corn field; settings: 150 g a.i./ha, after treatment
Description: as §12, §2, §3, §4, §5, §6, §7, §8, §9

Convolvulus arvensis = experiment: Field test for weed control in a corn field; settings: 150 g a.i./ha, after treatment
Description: as §12, §2, §3, §4, §5, §6, §7, §8, §9

Digitaria sanguinalis [15] = experiment: Field test for weed control in a corn field; settings: 150 g a.i./ha, after treatment
Description: as §12, §2, §3, §4, §5, §6, §7, §8, §9

Portulaca oleracea = experiment: Field test for weed control in a corn field; settings: 150 g a.i./ha, after treatment
Description: as §12, §2, §3, §4, §5, §6, §7, §8, §9

Solanum nigrum = experiment: Field test for weed control in a corn field; settings: 150 g a.i./ha, 30 days after treatment
Description: as §12, §2, §3, §4, §5, §6, §7, §8, §9

goosegrass = experiment: Field test for weed control in a corn field; settings: 150 g a.i./ha, after treatment
Description: as §12, §2, §3, §4, §5, §6, §7, §8, §9

green bristlegrass [16] = experiment: Field test for weed control in a corn field; settings: 150 g a.i./ha, after treatment
Description: as §12, §2, §3, §4, §5, §6, §7, §8, §9

nutgrass flatsedge = experiment: Field test for weed control in a corn field; settings: 150 g a.i./ha, after treatment
Description: as §12, §2, §3, §4, §5, §6, §7, §8, §9

SMILES | Herbicidal Activity Barnyard grass (Barnyard grass [1]) | Herbicidal Activity Piemarker (Piemarker [2]) | Herbicidal Activity Green bristlegrass (green bristlegrass [3]) | Herbicidal Activity Amaranthus retroflexus (Amaranthus retroflexus [4]) | Herbicidal Activity Digitaria sanguinalis (Digitaria sanguinalis [5]) | Herbicidal Activity Humulus scandens (Humulus scandens [6]) | Herbicidal Activity Amaranthus retroflexus (Amaranthus retroflexus [7]) | Herbicidal Activity Barnyard grass (Barnyard grass [8]) | Herbicidal Activity Digitaria sanguinalis (Digitaria sanguinalis [9]) | Herbicidal Activity Humulus scandens (Humulus scandens [10]) | Herbicidal Activity Piemarker (Piemarker [11]) | Herbicidal Activity Green bristlegrass (green bristlegrass [12]) | Herbicidal activity 15 days after treatment Broadleaf weed (Broadleaf weed) | Herbicidal activity 30 days after treatment Broadleaf weed (Broadleaf weed) | Herbicidal activity 15 days after treatment Cyperaceae (Cyperaceae) | Herbicidal activity 30 days after treatment Cyperaceae (Cyperaceae) | Herbicidal activity 15 days after treatment Gramineae (Gramineae) | Herbicidal activity 30 days after treatment Gramineae (Gramineae) | Post-emergence weed control effect, Acalypha australis (Acalypha australis) | Post-emergence weed control effect, Amaranthus retroflexus (Amaranthus retroflexus [13]) | further results
COc1ncccc1C(=O)NCc1cc(F)cc(Cl)c1 [Compound A89] | 1 | 1 | 1 | 1 | 2 (equivalent to 0 to 2.5% of the weed in the blank control area) | 2 (equivalent to 0 to 2.5% of the weed in the blank control area) | 1 | 1 | 1 | 1 | 1 | 1 | 1 | 1 | 1 | 1 | 1 | 1 | 1 | 1 | Post-emergence weed control effect, Barnyard grass (Barnyard grass [14]): 1; Post-emergence weed control effect, Chenopodium album (Chenopodium album): 1; Post-emergence weed control effect, Convolvulus arvensis (Convolvulus arvensis): 1; Post-emergence weed control effect, Digitaria sanguinalis (Digitaria sanguinalis [15]): 2 (equivalent to 0 to 2.5% of the weed in the blank control area); Post-emergence weed control effect, Portulaca oleracea (Portulaca oleracea): 1; Post-emergence weed control effect, Solanum nigrum (Solanum nigrum): 2 (equivalent to 0 to 2.5% of the weed in the blank control area); Post-emergence weed control effect, Goose grass (goosegrass): 2 (equivalent to 0 to 2.5% of the weed in the blank control area); Post-emergence weed control effect, Green bristlegrass (green bristlegrass [16]): 1; Post-emergence weed control effect, Nutgrass flatsedge (nutgrass flatsedge): 2 (equivalent to 0 to 2.5% of the weed in the blank control area)
CS(=O)(=O)c1ccc(C(=O)C2C(=O)CCCC2=O)c([N+](=O)[O-])c1 [Mesotrione, reference compound] | – | – | – | – | – | – | 1 | 1 | 1 | 1 | 1 | 1 | – | – | – | – | – | – | 2 (equivalent to 0 to 2.5% of the weed in the blank control area) | 1 | Post-emergence weed control effect, Barnyard grass (Barnyard grass [14]): 1; Post-emergence weed control effect, Chenopodium album (Chenopodium album): 1; Post-emergence weed control effect, Convolvulus arvensis (Convolvulus arvensis): 1; Post-emergence weed control effect, Digitaria sanguinalis (Digitaria sanguinalis [15]): 2 (equivalent to 0 to 2.5% of the weed in the blank control area); Post-emergence weed control effect, Portulaca oleracea (Portulaca oleracea): 1; Post-emergence weed control effect, Solanum nigrum (Solanum nigrum): 1; Post-emergence weed control effect, Goose grass (goosegrass): 2 (equivalent to 0 to 2.5% of the weed in the blank control area); Post-emergence weed control effect, Green bristlegrass (green bristlegrass [16]): 1; Post-emergence weed control effect, Nutgrass flatsedge (nutgrass flatsedge): 1
CS(=O)(=O)c1cc(C(F)(F)F)ccc1C(=O)c1cnoc1C1CC1 [Isoxaflutole, reference compound] | 1 | 1 | 1 | 1 | 1 | 1 | – | – | – | – | – | – | – | – | – | – | – | – | – | – | –
COc1cnc(OC)n2nc(NS(=O)(=O)c3c(OCC(F)F)cccc3C(F)(F)F)nc12 [Penoxsulam, reference compound] | – | – | – | – | – | – | – | – | – | – | – | – | 2 (equivalent to 0 to 2.5% of the weed in the blank control area) | 1 | 2 (equivalent to 0 to 2.5% of the weed in the blank control area) | 2 (equivalent to 0 to 2.5% of the weed in the blank control area) | 2 (equivalent to 0 to 2.5% of the weed in the blank control area) | 1 | – | – | –
